Activity calls are given as the source filed them. The calls are words filed in the database; no cut-off is given here.
Tests used:
A549 [1] = assay: Induction of cell cycle arrest in human A549 cells assessed as accumulation at G2/M phase at 10 uM after 24 hrs by FITC-labeled anti-BrdU antibody/7AAD staining based FACS calibur flow cytometric analysis (reference value: 12.61 %); format: functional
KM12 = assay: Antiproliferative activity against human KM12 cells at 10^-5 M after 48 hrs by SRB assay; format: functional; settings: KM12, 48 h, read-out: GI
NCI-H23 = assay: Antiproliferative activity against human NCI-H23 cells at 10^-5 M after 48 hrs by SRB assay; format: functional; settings: NCI-H23, 48 h, read-out: GI
HCC 2998 = assay: Antiproliferative activity against human HCC2998 cells at 10^-5 M after 48 hrs by SRB assay; format: functional; settings: HCC 2998, 48 h, read-out: GI
SK-OV-3 = assay: Antiproliferative activity against human SKOV3 cells at 10^-5 M after 48 hrs by SRB assay; format: functional; settings: SK-OV-3, 48 h, read-out: GI
IGROV-1 = assay: Antiproliferative activity against human IGROV1 cells at 10^-5 M after 48 hrs by SRB assay; format: functional; settings: IGROV-1, 48 h, read-out: GI
A549 [2] = assay: Induction of cell cycle arrest in human A549 cells assessed as accumulation at G2/M phase at 5 uM after 24 hrs by FITC-labeled anti-BrdU antibody/7AAD staining based FACS calibur flow cytometric analysis (reference value: 12.61 %); format: functional
SF-268 = assay: Antiproliferative activity against human SF268 cells at 10^-5 M after 48 hrs by SRB assay; format: functional; settings: SF-268, 48 h, read-out: GI
A549 [3] = assay: Induction of cell cycle arrest in human A549 cells assessed as accumulation at G1 phase at 5 uM after 24 hrs by FITC-labeled anti-BrdU antibody/7AAD staining based FACS calibur flow cytometric analysis (reference value: 65.9 %); format: functional
RXF 393 = assay: Antiproliferative activity against human RXF393 cells at 10^-5 M after 48 hrs by SRB assay; format: functional; settings: RXF 393, 48 h, read-out: GI
A549 [4] = assay: Induction of cell cycle arrest in human A549 cells assessed accumulation at G2/M phase at 25 uM after 24 hrs by FITC-labeled anti-BrdU antibody/7AAD staining based FACS calibur flow cytometric analysis (reference value: 12%); format: functional
WI-38 [5] = assay: Upregulation of p21 expression in human WI38 cells at 5 to 25 uM after 24 hrs by Western blot analysis; format: ADME, cell-based; settings: wi-38, 24 h
SN12C = assay: Antiproliferative activity against human SN12C cells at 10^-5 M after 48 hrs by SRB assay; format: functional; settings: read-out: GI
A549 [6] = assay: Induction of p53 expression in human A549 cells at 25 uM after 24 hrs in presence of PFTalpha by Western blot analysis; format: functional, cell-based
TK-10 = assay: Antiproliferative activity against human TK10 cells at 10^-5 M after 48 hrs by SRB assay; format: functional; settings: TK-10, 48 h, read-out: GI
NCI-H460 = assay: Antiproliferative activity against human NCI-H460 cells at 10^-5 M after 48 hrs by SRB assay; format: functional; settings: NCI-H460, 48 h, read-out: GI
HOP-92 = assay: Antiproliferative activity against human HOP92 cells at 10^-5 M after 48 hrs by SRB assay; format: functional; settings: HOP-92, 48 h, read-out: GI
A549 [7] = assay: Antiproliferative activity against human A549 cells at 10^-5 M after 48 hrs by SRB assay; format: functional; settings: A549, 48 h, read-out: GI
A549 [8] = assay: Upregulation of p21 expression in human A549 cells after 24 hrs by Western blot analysis; format: functional, cell-based
OVCAR-3 = assay: Antiproliferative activity against human OVCAR3 cells at 10^-5 M after 48 hrs by SRB assay; format: functional; settings: OVCAR-3, 48 h, read-out: GI
A549 [9] = assay: Induction of cell cycle arrest in human A549 cells assessed as accumulation at sub G1 phase at 25 uM after 24 hrs by FITC-labeled anti-BrdU antibody/7AAD staining based FACS calibur flow cytometric analysis (reference value: 0.82 %); format: functional
A549 [10] = assay: Induction of cell cycle arrest in human A549 cells assessed as accumulation at S phase at 5 uM after 24 hrs by FITC-labeled anti-BrdU antibody/7AAD staining based FACS calibur flow cytometric analysis (reference value: 20.9 %); format: functional
A549 [11] = assay: Induction of cell cycle arrest in human A549 cells assessed as accumulation at G1 phase at 15 uM after 24 hrs by FITC-labeled anti-BrdU antibody/7AAD staining based FACS calibur flow cytometric analysis (reference value: 65.9 %); format: functional
A498 = assay: Antiproliferative activity against human A498 cells at 10^-5 M after 48 hrs by SRB assay; format: functional; settings: A498, 48 h, read-out: GI
MDA-MB-231 = assay: Antiproliferative activity against human MDA-MB-231 cells at 10^-5 M after 48 hrs by SRB assay; format: functional; settings: MDA-MB-231, 48 h, read-out: GI
DU-145 = assay: Antiproliferative activity against human DU145 cells at 10^-5 M after 48 hrs by SRB assay; format: functional; settings: DU-145, 48 h, read-out: GI
MOLT-4 = assay: Antiproliferative activity against human MOLT4 cells at 10^-5 M after 48 hrs by SRB assay; format: functional; settings: MOLT-4, 48 h, read-out: GI
A549 [12] = assay: Induction of cell cycle arrest in human A549 cells assessed as accumulation at G1 phase at 25 uM after 24 hrs by FITC-labeled anti-BrdU antibody/7AAD staining based FACS calibur flow cytometric analysis (reference value: 65.9 %); format: functional
A549 [13] = assay: Induction of cell cycle arrest in human A549 cells assessed as accumulation at G2/M phase at 25 uM after 24 hrs by FITC-labeled anti-BrdU antibody/7AAD staining based FACS calibur flow cytometric analysis (reference value: 12.61 %); format: functional
MDA-MB-435 = assay: Antiproliferative activity against human MDA-MB-435 cells at 10^-5 M after 48 hrs by SRB assay; format: functional; settings: MDA-MB-435, 48 h, read-out: GI
OVCAR-5 = assay: Antiproliferative activity against human OVCAR5 cells at 10^-5 M after 48 hrs by SRB assay; format: functional; settings: OVCAR-5, 48 h, read-out: GI
NCI-H522 = assay: Antiproliferative activity against human NCI-H522 cells at 10^-5 M after 48 hrs by SRB assay; format: functional; settings: NCI-H522, 48 h, read-out: GI
SW-620 = assay: Antiproliferative activity against human SW620 cells at 10^-5 M after 48 hrs by SRB assay; format: functional; settings: SW-620, 48 h, read-out: GI
NCI/ADR-RES = assay: Antiproliferative activity against human NCI-ADR-RES cells at 10^-5 M after 48 hrs by SRB assay; format: functional; settings: read-out: GI
WI-38 [14] = assay: Downregulation of cyclinB1 expression in human WI38 cells at 5 to 25 uM after 24 hrs by Western blot analysis; format: ADME, cell-based; settings: wi-38, 24 h

Compound	inhibition of growth at 10 µM (KM12) [%]	inhibition of growth at 10 µM (NCI-H23) [%]	inhibition of growth at 10 µM (HCC 2998) [%]	inhibition of growth at 10 µM (SK-OV-3) [%]	inhibition of growth at 10 µM (IGROV-1) [%]	inhibition of growth at 10 µM (SF-268) [%]	inhibition of growth at 10 µM (RXF 393) [%]	inhibition of growth at 10 µM (SN12C) [%]	inhibition of growth at 10 µM (NCI-H460) [%]	inhibition of growth at 10 µM (HOP-92) [%]	inhibition of growth at 10 µM (A549 [7]) [%]	inhibition of growth at 10 µM (OVCAR-3) [%]	inhibition of growth at 10 µM (A498) [%]	inhibition of growth at 10 µM (MDA-MB-231) [%]	inhibition of growth at 10 µM (DU-145) [%]	inhibition of growth at 10 µM (MOLT-4) [%]	inhibition of growth at 10 µM (MDA-MB-435) [%]	inhibition of growth at 10 µM (OVCAR-5) [%]	inhibition of growth at 10 µM (NCI-H522) [%]	inhibition of growth at 10 µM (SW-620) [%]	also measured
O=C(CN1CCN(c2cc3c(cc2F)c(=O)c(C(=O)O)cn3C2CC2)CC1)Nc1ccc(Cl)cc1	17.1	5.51	14.2	36.6	6.22	8.82	25.3	9.89	12.1	21.1	30.8	7.56	31.4	39.8	0.9	3.53	11.7	0	114	0	Activity (A549 [1]): 22.6%; Activity (A549 [2]): 13.21%; Activity (A549 [3]): 68.9%; Activity (A549 [4]): 63.9%; Activity (WI-38 [5]): Non-Toxic; Activity (A549 [6]): inactive; inhibition of growth at 10 µM (TK-10): 13.9%; Activity (A549 [8]): Dose-dependent effect; Activity (A549 [9]): 2.6%; Activity (A549 [10]): 16.2%; Activity (A549 [11]): 46%; Activity (A549 [12]): 24.8%; Activity (A549 [13]): 64%; inhibition of growth at 10 µM (NCI/ADR-RES): 0%; Activity (WI-38 [14]): Non-Toxic
COc1cc(NC(=O)CN2CCN(c3cc4c(cc3F)c(=O)c(C(=O)O)cn4C3CC3)CC2)cc(OC)c1OC	0	0	0	5.77	0	0	0	2.78	0	18.7	0	6.06	0	0	0	0	0	0	24.4	0	inhibition of growth at 10 µM (TK-10): 10.5%; inhibition of growth at 10 µM (NCI/ADR-RES): 0%
COc1ccc(NC(=O)CN2CCN(c3cc4c(cc3F)c(=O)c(C(=O)O)cn4C3CC3)CC2)cc1	6.61	7.04	0	17	0	6.72	11.8	4	6.32	5.92	7.18	0	37.6	13.8	0	0	1.51	0	12.9	0	inhibition of growth at 10 µM (NCI/ADR-RES): 0%

Reference: ChEMBL document CHEMBL4428075, “New antiproliferative 7-(4-(N-substituted carbamoylmethyl)piperazin-1-yl) derivatives of ciprofloxacin induce cell cycle arrest at G2/M phase” (Bioorg Med Chem, 2016)
